Legend:
Lipolase = target: T1, Lipolase (Thermomyces lanuginosus, UniProt O59952); experiment: pH-Stat titration; type: biochemical; settings: commercial preparation; TC8 emulsion
T1 construct: gene LIP; commercial enzyme preparation (Novozymes)
T1 sequence (O59952 23-291): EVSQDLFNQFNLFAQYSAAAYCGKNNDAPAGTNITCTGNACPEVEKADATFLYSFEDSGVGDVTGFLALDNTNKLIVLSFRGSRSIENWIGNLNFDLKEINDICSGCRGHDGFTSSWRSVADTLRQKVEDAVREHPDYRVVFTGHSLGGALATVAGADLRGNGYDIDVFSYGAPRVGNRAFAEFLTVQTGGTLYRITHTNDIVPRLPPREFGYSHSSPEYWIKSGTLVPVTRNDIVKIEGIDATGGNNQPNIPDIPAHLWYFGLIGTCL

Palatase 20000 L = target: T2, Palatase 20000 L (Rhizomucor miehei, UniProt P19515); experiment: pH-Stat titration; type: biochemical; settings: commercial preparation; TC8 emulsion
T2 construct: commercial enzyme preparation (Novozymes)
T2 sequence (P19515 95-363): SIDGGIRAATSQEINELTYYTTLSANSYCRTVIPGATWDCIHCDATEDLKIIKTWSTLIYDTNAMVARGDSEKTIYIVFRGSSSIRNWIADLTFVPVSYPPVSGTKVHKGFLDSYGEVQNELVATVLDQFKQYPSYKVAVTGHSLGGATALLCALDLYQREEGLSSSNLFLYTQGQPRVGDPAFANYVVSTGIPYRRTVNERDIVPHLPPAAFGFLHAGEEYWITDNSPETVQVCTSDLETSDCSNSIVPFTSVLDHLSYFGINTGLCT

With `CCCCCCCC(=O)OCC(COC(=O)CCCCCCC)OC(=O)CCCCCCC` [TC8] the pH-Stat titration (Lipolase) was “almost the same substrate specificity profile as PCrL under the same experimental conditions” and the pH-Stat titration (Palatase 20000 L) was “almost the same substrate specificity profile as PCrL under the same experimental conditions”.

Reference: publication PMC9570478, “Purification, Biochemical and Kinetic Characterization of a Novel Alkaline sn-1,3-Regioselective Triacylglycerol Lipase from Penicillium crustosum Thom Strain P22 Isolated from Moroccan Olive Mill Wastewater” (International Journal of Molecular Sciences, 2022)
